Common to all, as to assay: relative viability (nuclei count vs DMSO), 5 days (fraction); higher = more cells survive
Compound in experiment [1]: CC(=O)Nc1cccc(-n2c(=O)n(C3CC3)c(=O)c3c(Nc4ccc(I)cc4F)n(C)c(=O)c(C)c32)c1 [Trametinib] + COc1cccc2cc(-c3nc([C@H]4CC[C@H](C(=O)O)CC4)n4ncnc(N)c34)[nH]c12 [OSI-027] (partner 0.5 µM)
A digest of the protocol: (§1)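 Lung cancer cell lines, seeded in 1536-well plates, were treated the following day by pin tool with a single drug or with five library-drug doses (not always all listed) in √10 steps on top of a fixed anchor-drug dose. Cells were fixed and nuclei stained in one step after 5 days, and nuclei were counted. Relative viability is the nuclei count for treated wells divided by that for vehicle wells, reported as medians of duplicate plates.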

Compound in experiment [2]: CC(=O)Nc1cccc(-n2c(=O)n(C3CC3)c(=O)c3c(Nc4ccc(I)cc4F)n(C)c(=O)c(C)c32)c1 [Trametinib] + O=C(CCCCCCC(=O)Nc1ccccc1)NO [Vorinostat] (partner 1 µM)
A digest of the protocol:
as §1

Compound in experiment [3]: CN1C=C(C2=CC=CC=C21)/C=C\3/C4=C(C=CC=N4)NC3=O + CS(=O)(=O)N1CCN(Cc2cc3nc(-c4cccc5[nH]ncc45)nc(N4CCOCC4)c3s2)CC1 [Pictilisib] (partner 1 µM)
A digest of the protocol:
as §1

Compound in experiment [4]: CN1C=C(C2=CC=CC=C21)/C=C\3/C4=C(C=CC=N4)NC3=O + C[C@@H](Oc1cc(-c2cnn(C3CCNCC3)c2)cnc1N)c1c(Cl)ccc(F)c1Cl [Crizotinib] (partner 1 µM)
A digest of the protocol:
as §1

Data on seven cell lines can be found in the supplement of paper PMC10307832.

In the case of NCI-H520, the relative viability in experiment [1] (first compound 0.0025 µM) was found to be 0.225; in experiment [1] (first compound 0.007906 µM), 0.272; in experiment [1] (first compound 0.025 µM), 0.246; in experiment [1] (first compound 0.07906 µM), 0.248; in experiment [1] (first compound 0.25 µM), 0.261; in experiment [2] (first compound 0.0025 µM), 0.868. In addition, the relative viability was determined as 0.733 in experiment [2] (first compound 0.007906 µM); 0.68 in experiment [2] (first compound 0.025 µM); 0.691 in experiment [2] (first compound 0.07906 µM); 0.532 in experiment [2] (first compound 0.25 µM); 0.275 in experiment [3] (first compound 0.02 µM); 0.296 in experiment [3] (first compound 0.06325 µM). Also, the relative viability was determined as 0.275 in experiment [3] (first compound 0.2 µM); 0.308 in experiment [3] (first compound 0.6325 µM); 0.335 in experiment [3] (first compound 2 µM); 0.569 in experiment [4] (first compound 0.02 µM); 0.828 in experiment [4] (first compound 0.06325 µM); 0.885 in experiment [4] (first compound 0.2 µM). In addition, the results for the relative viability in experiment [4] (first compound 0.6325 µM) and in experiment [4] (first compound 2 µM) were 0.773 and 0.807, respectively.

Take NCI-H650: the relative viability in experiment [1] (first compound 0.0025 µM) is 0.645; in experiment [1] (first compound 0.007906 µM), 0.765; in experiment [1] (first compound 0.025 µM), 0.619; in experiment [1] (first compound 0.07906 µM), 0.714; in experiment [1] (first compound 0.25 µM), 0.567; in experiment [2] (first compound 0.0025 µM), 0.528. Further, the relative viability in experiment [2] (first compound 0.007906 µM) amounted to 0.585; in experiment [2] (first compound 0.025 µM), 0.392; in experiment [2] (first compound 0.07906 µM) it was 0.569; in experiment [2] (first compound 0.25 µM), 0.667; in experiment [3] (first compound 0.02 µM), 0.826; in experiment [3] (first compound 0.06325 µM), 0.922. Also, the relative viability in experiment [3] (first compound 0.6325 µM) worked out at 0.784; in experiment [3] (first compound 2 µM), 0.911; in experiment [4] (first compound 0.02 µM), 0.586; in experiment [4] (first compound 0.06325 µM), 0.601; in experiment [4] (first compound 0.6325 µM), 0.771; in experiment [4] (first compound 2 µM), 0.797.

Turning to COR-L 105, the relative viability in experiment [1] (first compound 0.0025 µM) turned out to be 0.583; in experiment [1] (first compound 0.007906 µM) it was 0.477; in experiment [1] (first compound 0.025 µM), 0.309; in experiment [1] (first compound 0.07906 µM), 0.333; in experiment [1] (first compound 0.25 µM), 0.295; in experiment [2] (first compound 0.0025 µM), 0.715. Further, the relative viability stood at 0.747 in experiment [2] (first compound 0.007906 µM); 0.52 in experiment [2] (first compound 0.025 µM); 0.484 in experiment [2] (first compound 0.07906 µM); 0.379 in experiment [2] (first compound 0.25 µM); 0.412 in experiment [3] (first compound 0.02 µM); 0.383 in experiment [3] (first compound 0.06325 µM). In addition, the relative viability was found to be 0.385 in experiment [3] (first compound 0.2 µM); 0.364 in experiment [3] (first compound 0.6325 µM); 0.364 in experiment [3] (first compound 2 µM); 0.655 in experiment [4] (first compound 0.02 µM); 0.515 in experiment [4] (first compound 0.06325 µM); 0.637 in experiment [4] (first compound 0.2 µM). The relative viability amounted to 0.849 in experiment [4] (first compound 0.6325 µM) and 0.885 in experiment [4] (first compound 2 µM).

As for NCI-H1755, the relative viability in experiment [1] (first compound 0.0025 µM) is 0.668; in experiment [1] (first compound 0.007906 µM), 0.673; in experiment [1] (first compound 0.025 µM), 0.559; in experiment [1] (first compound 0.07906 µM) it was 0.707; in experiment [1] (first compound 0.25 µM) it was 0.664; in experiment [2] (first compound 0.0025 µM), 0.829. In addition, the relative viability is 0.698 in experiment [2] (first compound 0.007906 µM); 0.686 in experiment [2] (first compound 0.025 µM); 0.735 in experiment [2] (first compound 0.07906 µM); 0.747 in experiment [2] (first compound 0.25 µM); 0.405 in experiment [3] (first compound 0.02 µM); 0.342 in experiment [3] (first compound 0.06325 µM). For the same cell line, the relative viability amounted to 0.302 in experiment [3] (first compound 0.2 µM); 0.365 in experiment [3] (first compound 0.6325 µM); 0.37 in experiment [3] (first compound 2 µM); 0.855 in experiment [4] (first compound 0.02 µM); 0.802 in experiment [4] (first compound 0.06325 µM); 0.827 in experiment [4] (first compound 0.2 µM). For the same cell line, the relative viability in experiment [4] (first compound 0.6325 µM) came out at 0.836; in experiment [4] (first compound 2 µM), 0.919.

NCI-H2085: the relative viability came to 0.469 in experiment [1] (first compound 0.0025 µM); 0.352 in experiment [1] (first compound 0.007906 µM); 0.281 in experiment [1] (first compound 0.025 µM); 0.329 in experiment [1] (first compound 0.07906 µM); 0.298 in experiment [1] (first compound 0.25 µM); 0.695 in experiment [2] (first compound 0.0025 µM). Moreover, the relative viability in experiment [2] (first compound 0.007906 µM) worked out at 0.718; in experiment [2] (first compound 0.025 µM), 0.501; in experiment [2] (first compound 0.07906 µM) it was 0.609; in experiment [2] (first compound 0.25 µM), 0.563; in experiment [3] (first compound 0.02 µM), 0.307; in experiment [3] (first compound 0.06325 µM), 0.427. The relative viability in experiment [3] (first compound 0.2 µM) was determined as 0.39; in experiment [3] (first compound 0.6325 µM), 0.458; in experiment [3] (first compound 2 µM), 0.534; in experiment [4] (first compound 0.02 µM) it was 0.738; in experiment [4] (first compound 0.06325 µM), 0.892; in experiment [4] (first compound 0.2 µM), 0.752. Further, the relative viability in experiment [4] (first compound 0.6325 µM) was 0.868; in experiment [4] (first compound 2 µM), 0.803.

In the case of NCI-H2023, the relative viability came out at 0.344 in experiment [1] (first compound 0.0025 µM); 0.297 in experiment [1] (first compound 0.007906 µM); 0.229 in experiment [1] (first compound 0.025 µM); 0.311 in experiment [1] (first compound 0.07906 µM); 0.188 in experiment [1] (first compound 0.25 µM); 0.683 in experiment [2] (first compound 0.0025 µM). The relative viability turned out to be 0.477 in experiment [2] (first compound 0.007906 µM); 0.472 in experiment [2] (first compound 0.025 µM); 0.541 in experiment [2] (first compound 0.07906 µM); 0.136 in experiment [2] (first compound 0.25 µM); 0.258 in experiment [3] (first compound 0.02 µM); 0.17 in experiment [3] (first compound 0.06325 µM). For the same cell line, the relative viability stood at 0.128 in experiment [3] (first compound 0.2 µM); 0.193 in experiment [3] (first compound 0.6325 µM); 0.181 in experiment [3] (first compound 2 µM); 0.647 in experiment [4] (first compound 0.02 µM); 0.543 in experiment [4] (first compound 0.06325 µM); 0.606 in experiment [4] (first compound 0.2 µM). Moreover, the results for the relative viability in experiment [4] (first compound 0.6325 µM) and in experiment [4] (first compound 2 µM) were 0.62 and 0.694, respectively.

Regarding HOP-62, the relative viability in experiment [1] (first compound 0.0025 µM) came out at 0.879; in experiment [1] (first compound 0.007906 µM) it was 0.873; in experiment [1] (first compound 0.025 µM) it was 0.493; in experiment [1] (first compound 0.07906 µM), 0.219; in experiment [1] (first compound 0.25 µM) it was 0.188; in experiment [2] (first compound 0.0025 µM), 0.648. Moreover, the relative viability was found to be 0.467 in experiment [2] (first compound 0.007906 µM); 0.277 in experiment [2] (first compound 0.025 µM); 0.301 in experiment [2] (first compound 0.07906 µM); 0.106 in experiment [2] (first compound 0.25 µM); 0.729 in experiment [3] (first compound 0.02 µM); 1.05 in experiment [3] (first compound 0.06325 µM). Further, the relative viability in experiment [3] (first compound 0.2 µM) was 0.475; in experiment [3] (first compound 0.6325 µM), 0.627; in experiment [3] (first compound 2 µM) it was 0.937; in experiment [4] (first compound 0.02 µM), 0.902; in experiment [4] (first compound 0.06325 µM), 0.938; in experiment [4] (first compound 0.2 µM) it was 0.789. The relative viability in experiment [4] (first compound 0.6325 µM) was 0.918; in experiment [4] (first compound 2 µM) it was 1.01.
